Reference: ChEMBL document CHEMBL5131381, “Design, synthesis, and mechanistic investigations of phenylalanine derivatives containing a benzothiazole moiety as HIV-1 capsid inhibitors with improved metabolic stability” (Eur J Med Chem, 2022)
pEC50: −log10 of the molar value. The source made the active and inactive calls. No cut-off for these calls is given here.

Tests used:
[1] = in vitro; conditions: human, liver microsomes
[2] = system: Human immunodeficiency virus 1; assay: Antiviral activity against HIV-1 3B infected in human MT4 cells assessed as protection against virus-induced cytopathic effect by MTT assay; format: functional, organism-based; conditions: Human immunodeficiency virus 1, 3B
[3] = system: MT4; assay: Cytotoxicity against mock infected human MT4 cells by MTT assay; format: toxicity, cell-based
[4] = Metabolic stability in human plasma assessed as parent compound remaining measured after 120 mins by LC-MS/MS analysis; format: ADME, cell-free; conditions: 2 h
[5] = system: Human immunodeficiency virus 1; assay: Antiviral activity against HIV-1 NL4-3 Env-deficient pseudotype virus infected in U87/CD4/CCR5 cells assessed as reduction in viral infection in late stage measured after 48 hrs by luciferase activity based single-round infection assay; format: functional, organism-based
[6] = system: Human immunodeficiency virus 1; assay: Antiviral activity against HIV-1 NL4-3 Env-deficient pseudotype virus infected in U87/CD4/CCR5 cells assessed as reduction in viral infection in early stage measured after 48 hrs by luciferase activity based single-round infection assay; format: functional, organism-based

Compound	pEC50 [2]	CC50 [3]	further results
O=C(O)Cc1ccccc1Nc1c(Cl)cccc1Cl [DICLOFENAC]	–	–	microsomal CLint [1]: 372 µL/min/mg
CN(C(=O)[C@H](Cc1ccccc1)NC(=O)c1cccc(C(=O)Nc2ccc(Cl)cc2)c1)c1ccc2scnc2c1	< 3.66	> 220 µM	–
CN(C(=O)[C@H](Cc1ccccc1)NC(=O)c1cccc(C(=O)Nc2ccc(C#N)cc2)c1)c1ccc2scnc2c1	4.88	> 224 µM	–
CN(C(=O)[C@H](Cc1ccccc1)NC(=O)c1cccc(C(=O)Nc2ccccc2)c1)c1ccc2scnc2c1	4.65	> 234 µM	–
Cc1ccc(NC(=O)c2cccc(C(=O)N[C@@H](Cc3ccccc3)C(=O)N(C)c3ccc4scnc4c3)c2)cc1	4.39	> 228 µM	–
CN(C(=O)[C@H](Cc1ccccc1)NC(=O)c1cccc(C(=O)Nc2ccc(OC(F)(F)F)cc2)c1)c1ccc2scnc2c1	4.46	118 µM	–
CN(C(=O)[C@H](Cc1ccccc1)NC(=O)c1cccc(C(=O)Nc2ccc(C(F)(F)F)cc2)c1)c1ccc2scnc2c1	≤ 4.40	88.2 µM	–
CN(C(=O)[C@H](Cc1ccccc1)NC(=O)c1cccc(C(=O)Nc2ccccc2N)c1)c1ccc2scnc2c1	< 4.60	25.4 µM	–
CN(C(=O)[C@H](Cc1ccccc1)NC(=O)c1cccc(C(=O)Nc2ccncc2)c1)c1ccc2scnc2c1	≤ 4.38	37.6 µM	–
C#CCNC(=O)c1cccc(C(=O)N[C@@H](Cc2ccccc2)C(=O)N(C)c2ccc3scnc3c2)c1	5.30	–	Stability [4]: Stable
CN(C(=O)[C@H](Cc1ccccc1)NC(=O)c1cccc(C(=O)Nc2cccc(F)c2)c1)c1ccc2scnc2c1	< 3.65	> 226 µM	–
CN(C(=O)[C@H](Cc1ccccc1)NC(=O)c1cccc(C(=O)Nc2ccc(N)cc2)c1)c1ccc2scnc2c1	5.45	–	Activity [5]: Active; Activity [6]: Active; Stability [4]: Stable
CN(C(=O)[C@H](Cc1ccccc1)NC(=O)c1cccc(C(=O)Nc2cccc(NC(=O)OC(C)(C)C)c2)c1)c1ccc2scnc2c1	< 3.72	> 193 µM	–
CN(C(=O)[C@H](Cc1ccccc1)NC(=O)c1cccc(C(=O)N2CCN(C(=O)OC(C)(C)C)CC2)c1)c1ccc2scnc2c1	4.87	93.9 µM	–
COc1ccc(NC(=O)c2cccc(C(=O)N[C@@H](Cc3ccccc3)C(=O)N(C)c3ccc4scnc4c3)c2)cc1	≤ 3.69	> 222 µM	–
CC(=O)c1ccc(NC(=O)c2cccc(C(=O)N[C@@H](Cc3ccccc3)C(=O)N(C)c3ccc4scnc4c3)c2)cc1	< 3.78	165 µM	–
COCCNC(=O)c1cccc(C(=O)N[C@@H](Cc2ccccc2)C(=O)N(C)c2ccc3scnc3c2)c1	4.80	203 µM	–
C[C@]12CC[C@H]3[C@@H](CCC4=CC(=O)CC[C@@]43C)[C@@H]1CC[C@@H]2O [TESTOSTERONE]	–	–	microsomal CLint [1]: 82.8 µL/min/mg
CN(C(=O)[C@H](Cc1ccccc1)NC(=O)c1cccc(C(=O)Nc2ccccc2F)c1)c1ccc2scnc2c1	4.66	66.4 µM	–
CN(C(=O)[C@H](Cc1ccccc1)NC(=O)c1cccc(C(=O)Nc2ccc(F)cc2)c1)c1ccc2scnc2c1	4.50	54 µM	–
CN(C(=O)[C@H](Cc1ccccc1)NC(=O)c1cccc(C(=O)NC2CCN(C(=O)OC(C)(C)C)CC2)c1)c1ccc2scnc2c1	< 4.53	29.3 µM	–
CN(C(=O)[C@H](Cc1ccccc1)NC(=O)c1cccc(C(=O)Nc2ccc(NC(=O)OC(C)(C)C)cc2)c1)c1ccc2scnc2c1	< 5.65	2.23 µM	–
CN(C(=O)[C@H](Cc1ccccc1)NC(=O)c1cccc(C(=O)Nc2ccccc2NC(=O)OC(C)(C)C)c1)c1ccc2scnc2c1	–	> 193 µM	–
CN(C(=O)[C@H](Cc1ccccc1)NC(=O)c1cccc(C(=O)Nc2cccc(N)c2)c1)c1ccc2scnc2c1	4.63	134 µM	–
CN(C(=O)[C@H](Cc1ccccc1)NC(=O)c1cccc(C(=O)Nc2ccc(Br)cc2)c1)c1ccc2scnc2c1	≤ 3.73	> 204 µM	–
